Results reported in patent US7799809B2, “Carboxamide compounds and their use as calpain inhibitors” (Abbott GmbH & Co. KG, priority 2006, dated 2010).

Biological target: T1, cathepsin S (Homo sapiens, UniProt P25774)
T1 construct: purchased Calbiochem 219343; host or cells: E. coli
Experiment: Cathepsin S enzyme inhibition in vitro (kinetic fluorescence assay)
Type: biochemical
Settings: recombinant human cathepsin S vs calpain I
Protocol: (§1) The following solutions and buffers were employed: • HBS (for 40 ml): 800 μl M HEPES; 2.16 ml 100 mM KCl; 4.8 ml 1M NaCl; 3.59 ml 5% glucose; 60 μl μM MgSO4; 400 μl 100 mM Na pyruvate, 28.19 ml water; pH 7.2-7.5. • lysis buffer (for 20 ml): 400 μl M Tris pH 8.2; 2.74 ml 1M NaCl; 520 μl 0.5M EDTA; 2 ml 10% triton X-100; 0.8 ml (=1:25) CompletePlus (1 tablet/2 ml H2O); 200 μl 100 mM Pefabloc; 13.34 ml water, pH 8.2. • TBST (10×) (for 1 l): 100 mM Tris (12.1 g); 1.5M NaCl (87 g); 1% Tween 20 (10 g), adjusted to pH 8. I Enzyme Inhibition In Vitro: • Testing for blockade of the corresponding enzymic activities was carried out by means of kinetic fluorescence assays (excitation 390 nm, emission 460 nm). • Apparent Ki values were calculated from the experimentally determined IC50 values by the Cheng-Prussoff relation assuming a reversible competitive enzyme inhibition. The Km values of the substrates used under the assay conditions indicated above were: 90 μM (Z-Phe-Arg-AMC, cathepsin B), 10 μM (Z-Gly-Pro-Arg-AMC, cathepsin K), 2 μM (Z-Phe-Arg-AMC, cathepsin L), and 30 μM (Z-Val-Val-Arg-AMC, cathepsin S). • The indicated Ki values are averages of the inhibition constants calculated on the basis of 2 to 4 independent dose-effect plots.
(§2) The following assays were used: • 1. Calpain I: • 20 nM calpain-I—isolated from human erythrocytes (Calbiochem #208713), 100 μM Suc-Leu-Tyr-AMC (Bachem #1-1355) as substrate in buffer with 62 mM imidazole, 0.3 mM CaCl2, 0.10% CHAPS, 0.05% BSA, 1 mM DTT at pH 7.3 and room temperature. • 2. Cathepsin B: • 0.25 nM cathepsin B—isolated from human liver (Calbiochem #219362), 100 μM Z-Phe-Arg-AMC (Bachem #I-1160) as substrate 50 mM MES, 2 mM EDTA, 0.05% Brij 35, 2.5 mM L-cysteine, pH 6.0, room temperature. • 3. Cathepsin K: • 3 nM cathepsin K—activated from recombinant human procathepsin K from E. coli (Calbiochem #342001), 10 μM Z-Gly-Pro-Arg-AMC (Biomol #P-142) as substrate in 50 mM MES, 2 mM EDTA, 0.05% Brij 35, 2.5 mM L-cysteine, pH 6.0, room temperature. • 4. Cathepsin L: • 1 nM cathepsin L—isolated from human liver (Calbiochem #219402), 2 μM Z-Phe-Arg-AMC (Bachem #1-1160) as substrate in 50 mM MES, 2 mM EDTA, 0.05% Brij 35, 2.5 mM L-cysteine, pH 6.0, room temperature. • 5. Cathepsin S: • 0.5 nM recombinant human cathepsin S from E. coli (Calbiochem #219343), 20 μM Z-Val-Val-Arg-AMC (Bachem #1-1540) as substrate in 50 mM MES, 2 mM EDTA, 0.05% Brij 35, 2.5 mM L-cysteine, pH 6.0, room temperature. • The results of the in vitro determination are indicated in Table 1. The following abbreviations are used in Table 1: • The “Calpain activity” column, ++ stands for a calpain Ki (Ki(calpain)) of ≦40 nM and + means: 40 nM<Ki(Calpain)≦100 nM. • The “Sel. cat. B” column indicates the Ki(cathepsin B)/Ki(calpain) ratio. In this connection, ++ means a Ki(cathepsin B)/Ki(calpain) ratio of ≧30 and + means 10≦Ki(cathepsin B)/Ki(calpain)<30. • The “Sel. cat. K” column indicates the Ki(cathepsin K)/Ki(calpain) ratio. In this connection, ++ means a Ki(cathepsin K)/Ki(calpain) ratio of ≧30 and + means 10≦Ki(cathepsin K)/Ki(calpain)<30. • The “Sel. cat. L” column indicates the Ki(cathepsin L)/Ki(calpain) ratio. In this connection, ++ means a Ki(cathepsin L)/Ki(calpain) ratio of ≧50 and + means 30≦Ki(cathepsin L)/Ki(calpain)<50. • The “Sel. cat. S” column indicates the Ki(cathepsin S)/Ki(calpain) ratio. In this connection, ++ means a Ki(cathepsin S)/Ki(calpain) ratio of ≧100 and + means 50≦Ki(cathepsin S)/Ki(calpain)<100.

T1 sequence (P25774 115-331): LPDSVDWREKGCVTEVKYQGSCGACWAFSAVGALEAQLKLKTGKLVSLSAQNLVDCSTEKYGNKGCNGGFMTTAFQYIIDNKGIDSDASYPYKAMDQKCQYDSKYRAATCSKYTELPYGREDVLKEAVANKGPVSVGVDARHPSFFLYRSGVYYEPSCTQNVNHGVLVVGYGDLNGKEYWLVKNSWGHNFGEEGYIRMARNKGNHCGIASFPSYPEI

| SMILES | Sel cat. S: Ki(cathepsin S)/Ki(calpain) ratio |
| --- | --- |
| CCCCC(NC(=O)c1cccnc1-n1ccc(-c2ccc(N(CC)CC)cc2)n1)C(=O)C(N)=O (stereo not shown) [Example 47, N-{1-[Amino(oxo)acetyl]pentyl}-2-{3-[4-(diethylamino)phenyl]-1H-pyrazol-1-yl}nicotinamide] | ++ (++ means a Ki(cathepsin S)/Ki(calpain) ratio of ≧100) |
| Cl.NC(=O)C(=O)C(Cc1ccccc1)NC(=O)c1cccnc1-n1ccc(-c2cccc(CN3CCOCC3)c2)n1 (stereo not shown) [Example 52, N-(3-Amino-1-benzyl-2,3-dioxopropyl)-2-{3-[3-(morpholin-4-ylmethyl)phenyl]-1H-pyrazol-1-yl}nicotinamide hydrochloride] | ++ (++ means a Ki(cathepsin S)/Ki(calpain) ratio of ≧100) |
| NC(=O)C(=O)C(Cc1ccccc1)NC(=O)c1cccnc1-n1cc(-c2ccccc2F)cn1 (stereo not shown) [Example 104, N-[3-Amino-2,3-dioxo-1-(phenylmethyl)propyl]-2-[4-(2-fluorophenyl)-1H-pyrazol-1-yl]pyridine-3-carboxamide] | + (+ means 50≦Ki(cathepsin S)/Ki(calpain)<100) |
| NC(=O)C(=O)C(Cc1ccccc1)NC(=O)c1cccnc1-n1cc(CN2CCCC2)c(-c2cccc(C(F)(F)F)c2)n1 (stereo not shown) [Example 178, N-[3-Amino-2,3-dioxo-1-(phenylmethyl)propyl]-2-{4-(pyrrolidin-1-ylmethyl)-3-[3-(trifluoromethyl)phenyl]-1H-pyrazol-1-yl}pyridine-3-carboxamide] | ++ (++ means a Ki(cathepsin S)/Ki(calpain) ratio of ≧100) |
| NC(=O)C(=O)C(Cc1ccccc1)NC(=O)c1cccnc1-n1ccc(-c2ccc(CN3CCOCC3)cc2)n1 (stereo not shown) [Example 46, N-(3-Amino-1-benzyl-2,3-dioxopropyl)-2-{3-[4-(morpholin-4-ylmethyl)phenyl]-1H-pyrazol-1-yl}nicotinamide] | ++ (++ means a Ki(cathepsin S)/Ki(calpain) ratio of ≧100) |
| NC(=O)C(=O)C(Cc1ccccc1)NC(=O)c1cccnc1-n1ccc(-c2ccc(-n3ccnc3)cc2)n1 (stereo not shown) [Example 101, N-[3-Amino-2,3-dioxo-1-(phenylmethyl)propyl]-2-{3-[4-(1H-imidazol-1-yl)phenyl]-1H-pyrazol-1-yl}pyridine-3-carboxamide] | ++ (++ means a Ki(cathepsin S)/Ki(calpain) ratio of ≧100) |
| NC(=O)C(=O)C(Cc1ccccc1)NC(=O)c1cccnc1-n1cc(CN2CCOCC2)c(-c2cccc(C(F)(F)F)c2)n1 (stereo not shown) [Example 177, N-[3-Amino-2,3-dioxo-1-(phenylmethyl)propyl]-2-{4-(morpholin-4-ylmethyl)-3-[3-(trifluoromethyl)phenyl]-1H-pyrazol-1-yl}pyridine-3-carboxamide] | ++ (++ means a Ki(cathepsin S)/Ki(calpain) ratio of ≧100) |
| CCCCC(NC(=O)c1cccnc1-n1ccc(-c2ccc(CN(CC)CC)cc2)n1)C(=O)C(N)=O (stereo not shown) [Example 44, N-{1-[Amino(oxo)acetyl]pentyl}-2-(3-{4-[(diethylamino)methyl]phenyl}-1H-pyrazol-1-yl)nicotinamide] | + (+ means 50≦Ki(cathepsin S)/Ki(calpain)<100) |
| CCN(CC)c1ccc(-c2ccn(-c3ncccc3C(=O)NC(Cc3ccccc3)C(=O)C(N)=O)n2)cc1 (stereo not shown) [Example 42, N-(3-Amino-1-benzyl-2,3-dioxopropyl)-2-{3-[4-(diethylamino)phenyl]-1H-pyrazol-1-yl}nicotinamide] | ++ (++ means a Ki(cathepsin S)/Ki(calpain) ratio of ≧100) |
| CCN(CC)Cc1ccc(-c2ccn(-c3ncccc3C(=O)NC(Cc3ccccc3)C(=O)C(N)=O)n2)cc1.Cl (stereo not shown) [Example 43, N-(3-Amino-1-benzyl-2,3-dioxopropyl)-2-(3-{4-[(diethylamino)methyl]phenyl}-1H-pyrazol-1-yl)nicotinamide hydrochloride] | ++ (++ means a Ki(cathepsin S)/Ki(calpain) ratio of ≧100) |
| NC(=O)C(=O)C(Cc1ccccc1)NC(=O)c1cccnc1-n1ccc(-c2ccncc2)n1 (stereo not shown) [Example 65, N-(3-Amino-1-benzyl-2,3-dioxopropyl)-2-(3-pyridin-4-yl-1H-pyrazol-1-yl)nicotinamide] | ++ (++ means a Ki(cathepsin S)/Ki(calpain) ratio of ≧100) |
| CCCCC(NC(=O)c1cccnc1-n1ccc(-c2ccccc2)n1)C(=O)C(N)=O (stereo not shown) [Example 6, N-{1-[Amino(oxo)acetyl]pentyl}-2-(3-phenyl-1H-pyrazol-1-yl)nicotinamide] | + (+ means 50≦Ki(cathepsin S)/Ki(calpain)<100) |
| NC(=O)C(=O)C(Cc1ccccc1)NC(=O)c1cccnc1-n1cc(CCN2CCOCC2)c(-c2ccc(F)cc2)n1 (stereo not shown) [Example 165, N-[3-Amino-2,3-dioxo-1-(phenylmethyl)propyl]-2-[3-(4-fluorophenyl)-4-(2-morpholin-4-ylethyl)-1H-pyrazol-1-yl]pyridine-3-carboxamide] | ++ (++ means a Ki(cathepsin S)/Ki(calpain) ratio of ≧100) |
| CN(C)Cc1cn(-c2ncccc2C(=O)NC(Cc2ccccc2)C(=O)C(N)=O)nc1-c1cccc(C(F)(F)F)c1 (stereo not shown) [Example 176, N-[3-Amino-2,3-dioxo-1-(phenylmethyl)propyl]-2-{4-[(dimethylamino)methyl]-3-[3-(trifluoromethyl)phenyl]-1H-pyrazol-1-yl}pyridine-3-carboxamide] | ++ (++ means a Ki(cathepsin S)/Ki(calpain) ratio of ≧100) |
| CCCCC(NC(=O)c1cccnc1-n1ccc(-c2ccc(CN3CCOCC3)cc2)n1)C(=O)C(N)=O (stereo not shown) [Example 45, N-{1-[Amino(oxo)acetyl]pentyl}-2-{3-[4-(morpholin-4-ylmethyl)phenyl]-1H-pyrazol-1-yl}nicotinamide] | + (+ means 50≦Ki(cathepsin S)/Ki(calpain)<100) |
| NC(=O)C(=O)C(Cc1ccccc1)NC(=O)c1cccnc1-n1cnc(-c2ccc(N3CCOCC3)cc2)c1 (stereo not shown) [Example 14, N-(3-Amino-1-benzyl-2,3-dioxopropyl)-2-[4-(4-morpholin-4-ylphenyl)-1H-imidazol-1-yl]nicotinamide] | ++ (++ means a Ki(cathepsin S)/Ki(calpain) ratio of ≧100) |

Biological target: T2, cathepsin L (Homo sapiens, UniProt P07711)
T2 construct: cathepsin L—isolated from human liver (Calbiochem #219402); purchased Calbiochem 219402; host or cells: human liver (tissue-derived)
T2 sequence (P07711 114-333): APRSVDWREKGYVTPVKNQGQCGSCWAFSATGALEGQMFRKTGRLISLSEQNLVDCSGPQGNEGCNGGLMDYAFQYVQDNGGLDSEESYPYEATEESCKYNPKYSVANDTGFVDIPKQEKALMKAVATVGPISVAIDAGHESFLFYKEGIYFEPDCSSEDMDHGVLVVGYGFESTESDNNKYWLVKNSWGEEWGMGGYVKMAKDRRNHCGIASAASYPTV
Experiment: Cathepsin L enzyme inhibition in vitro (kinetic fluorescence assay)
Type: biochemical
Settings: cathepsin L isolated from human liver vs calpain I
Protocol: as §1, §2

| SMILES | Sel cat. L: Ki(cathepsin L)/Ki(calpain) ratio |
| --- | --- |
| CCCCC(NC(=O)c1cc(Cl)cnc1-n1cnc(-c2ccccc2)c1)C(=O)C(N)=O.Cl (stereo not shown) [Example 24, N-{1-[Amino(oxo)acetyl]pentyl}-5-chloro-2-(4-phenyl-1H-imidazol-1-yl)nicotinamide hydrochloride] | + (+ means 30≦Ki(cathepsin L)/Ki(calpain)<50) |
| CCCCC(NC(=O)c1cccnc1-n1cnc(-c2ccccc2)c1)C(=O)C(N)=O (stereo not shown) [Example 2, N-{1-[Amino(oxo)acetyl]pentyl}-2-(4-phenyl-1H-imidazol-1-yl)nicotinamide] | ++ (++ means a Ki(cathepsin L)/Ki(calpain) ratio of ≧50) |
| COCc1cn(-c2ncccc2C(=O)NC(Cc2ccccc2)C(=O)C(N)=O)nc1-c1ccc(F)cc1 (stereo not shown) [Example 170, N-[3-Amino-2,3-dioxo-1-(phenylmethyl)propyl]-2-{3-(4-fluorophenyl)-4-[(methyloxy)methyl]-1H-pyrazol-1-yl}pyridine-3-carboxamide] | + (+ means 30≦Ki(cathepsin L)/Ki(calpain)<50) |
